Here are results for two compounds from patent US12325708B2, “Adenosine 2 receptor antagonists” (Nektar Therapeutics, priority 2019, dated 2025).

A word on the Ki: it is a measure of affinity in units of concentration, obtained from inhibition or displacement. Broadly, the Kp is the ratio of the level in a tissue or fluid to that in plasma or blood.

Data set [1] is described as follows: Brain-to-plasma ratio (B/P) after administration. Format: in vivo, Sprague-Dawley rats. To be noted: Table 2, brain-to-plasma ratio at 1 h. An outline of the steps: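 Plasma pharmacokinetic parameters determined after oral (PO) administration; brain-to-plasma concentration ratio (B/P) used as the brain penetration measure.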
For another data set, the target named is T1, A2A receptor (Homo sapiens, UniProt P29274).
T1 construct: purchased
T1 sequence (P29274 whole entry): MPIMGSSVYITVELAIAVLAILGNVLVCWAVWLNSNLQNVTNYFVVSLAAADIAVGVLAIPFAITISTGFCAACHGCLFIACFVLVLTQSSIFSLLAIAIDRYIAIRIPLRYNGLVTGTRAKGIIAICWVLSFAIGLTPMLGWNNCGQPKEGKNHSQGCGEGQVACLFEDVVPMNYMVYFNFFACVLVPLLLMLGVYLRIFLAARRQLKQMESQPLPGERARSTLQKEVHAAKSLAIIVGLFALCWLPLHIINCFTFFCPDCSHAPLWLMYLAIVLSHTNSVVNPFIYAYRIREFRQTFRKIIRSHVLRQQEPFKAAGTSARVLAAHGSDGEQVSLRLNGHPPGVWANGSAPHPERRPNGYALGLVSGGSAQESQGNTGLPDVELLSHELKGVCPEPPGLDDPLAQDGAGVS
Description: Radioligand receptor binding assay, A2A receptor. To be noted: cell membranes overexpressing A2A receptor, read-out: Potency Ki A2A. Put shortly: (§1)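 Membranes from cell lines overexpressing human A2A, A1 or A3 receptors were incubated 60 min at room temperature with the receptor-appropriate [3H] tracer. After filtration and washing in 50 mM Tris HCl pH 7.5, bound label was counted by scintillation. IC50 came from nonlinear regression and Ki from the Cheng-Prusoff equation.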

The next data set concerns the target T2, A1 receptor (Homo sapiens, UniProt P30542).
T2 construct: purchased
T2 sequence (P30542 1-326): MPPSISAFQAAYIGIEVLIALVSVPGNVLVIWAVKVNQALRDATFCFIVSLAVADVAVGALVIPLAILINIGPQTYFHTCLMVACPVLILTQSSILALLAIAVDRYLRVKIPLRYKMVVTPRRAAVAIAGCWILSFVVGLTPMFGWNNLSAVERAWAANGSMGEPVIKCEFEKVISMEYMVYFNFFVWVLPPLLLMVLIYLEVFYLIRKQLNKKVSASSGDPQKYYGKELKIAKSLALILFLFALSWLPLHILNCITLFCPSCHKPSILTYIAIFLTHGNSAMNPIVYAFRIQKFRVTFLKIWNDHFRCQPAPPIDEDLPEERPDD
Put plainly: Radioligand receptor binding assay, A1 receptor. To be noted: cell membranes overexpressing A1 receptor, read-out: Potency Ki A1. An outline of the steps: as §1

In the case of `COCCOc1ccc(N2CCN(CCN(C)c3cc4nc(-c5ncco5)nn4c(N)n3)CC2)cc1` [Compound 1, N^7-(2-{4-[4-(2-methoxyethoxy)phenyl]piperazin-1-yl}ethyl)-N^7-methyl-2-(1,3-oxazol-2-yl)[1,2,4]triazolo[1,5-c]pyrimidine-5,7-diamine], in data set [1], the “B/P (1 h)” value is 0.06^1. In addition, the Ki was 0.006 µM on A2A receptor and 50 µM at A1 receptor.
For the compound `COCCOc1cnc(N2CCN(CCN(C)c3cc4nc(-c5ncco5)nn4c(N)n3)CC2)c(F)c1` [Compound 4, N^7-(2-{4-[3-fluoro-5-(2-methoxyethoxy)pyridin-2-yl]piperazin-1-yl}ethyl)-N^7-methyl-2-(1,3-oxazol-2-yl)[1,2,4]triazolo[1,5-c]pyrimidine-5,7-diamine], the concentration ratio (Kp) at 1 h in data set [1] (Sprague-Dawley, rat) was 0.04. Also, the figures for the Ki at A2A receptor and on A1 receptor were 0.002 µM and 14 µM, respectively.
